In the supplement of paper PMC10307832:

Compound: C[C@@H](C(=O)N[C@@H](C1CCCCC1)C(=O)N2CCC[C@H]2C(=O)N[C@@H]3[C@@H](CC4=CC=CC=C34)OCC#CC#CCO[C@@H]5CC6=CC=CC=C6[C@@H]5NC(=O)[C@@H]7CCCN7C(=O)[C@H](C8CCCCC8)NC(=O)[C@H](C)NC)NC [AZD5582] + CC(=O)c1c(C)c2cnc(Nc3ccc(N4CCNCC4)cn3)nc2n(C2CCCC2)c1=O [Palbociclib] (partner 0.5 µM)
Experiment: relative viability (nuclei count vs DMSO), 5 days (fraction); higher = more cells survive
Conditions: first compound 0.001581 µM
Method in brief: (§1)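 Five library-drug doses in √10 steps were combined with a fixed anchor-drug dose, or a single drug was given alone, by pin tool to lung cancer cell lines in 1536-well plates the day after seeding. Nuclei were stained and counted after 5 days. Relative viability is the nuclei count in treated wells over that in vehicle wells, taken as the median of duplicate plates.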

Cell Line	relative viability
NCI-H1975	0.547
NCI-H1993	0.564
NCI-H2009	0.24
NCI-H2023	0.35
NCI-H2085	0.504
NCI-H2087	0.188
NCI-H2126	0.331
NCI-H2170	0.37
NCI-H2228	0.674
NCI-H2342	0.492
NCI-H2347	0.43
NCI-H2405	0.474
NCI-H3122	0.197
PC-3 [JPC-3]	0.483
PC-14	0.401
RERF-LC-KJ	0.354
SK-LU-1	0.333

Same assay, conditions: first compound 0.005 µM

Cell Line	relative viability
NCI-H1975	0.728
NCI-H1993	0.558
NCI-H2009	0.225
NCI-H2023	0.469
NCI-H2085	0.509
NCI-H2087	0.23
NCI-H2126	0.334
NCI-H2170	0.388
NCI-H2228	0.706
NCI-H2342	0.518
NCI-H2347	0.392
NCI-H2405	0.505
NCI-H3122	0.185
PC-3 [JPC-3]	0.512
PC-14	0.322
RERF-LC-KJ	0.494
SK-LU-1	0.366

Same assay, conditions: first compound 0.01581 µM

Cell Line	relative viability
NCI-H1975	0.548
NCI-H1993	0.655
NCI-H2009	0.184
NCI-H2023	0.359
NCI-H2085	0.459
NCI-H2087	0.225
NCI-H2126	0.36
NCI-H2170	0.364
NCI-H2228	0.84
NCI-H2342	0.491
NCI-H2347	0.447
NCI-H2405	0.475
NCI-H3122	0.181
PC-3 [JPC-3]	0.58
PC-14	0.47
RERF-LC-KJ	1.03
SK-LU-1	0.331

Same assay, conditions: first compound 0.05 µM

Cell Line	relative viability
NCI-H1975	0.52
NCI-H1993	0.664
NCI-H2009	0.203
NCI-H2023	0.4
NCI-H2085	0.599
NCI-H2087	0.241
NCI-H2126	0.379
NCI-H2170	0.492
NCI-H2228	0.127
NCI-H2342	0.54
NCI-H2347	0.416
NCI-H2405	0.433
NCI-H3122	0.143
PC-3 [JPC-3]	0.478
PC-14	0.34
RERF-LC-KJ	0.27
SK-LU-1	0.247

Compound: C[C@@H](C(=O)N[C@@H](C1CCCCC1)C(=O)N2CCC[C@H]2C(=O)N[C@@H]3[C@@H](CC4=CC=CC=C34)OCC#CC#CCO[C@@H]5CC6=CC=CC=C6[C@@H]5NC(=O)[C@@H]7CCCN7C(=O)[C@H](C8CCCCC8)NC(=O)[C@H](C)NC)NC [AZD5582] + COc1cccc2cc(-c3nc([C@H]4CC[C@H](C(=O)O)CC4)n4ncnc(N)c34)[nH]c12 [OSI-027] (partner 0.5 µM)
Experiment: as above
Conditions: first compound 0.001581 µM
Method in brief: as §1

Cell Line	relative viability
NCI-H1975	0.688
NCI-H1993	0.503
NCI-H2009	0.536
NCI-H2023	0.286
NCI-H2085	0.499
NCI-H2087	0.523
NCI-H2126	0.709
NCI-H2170	0.653
NCI-H2228	0.524
NCI-H2342	0.518
NCI-H2347	0.335
NCI-H2405	0.651
NCI-H3122	0.912
PC-3 [JPC-3]	0.633
PC-14	0.643
SK-LU-1	0.288

Same assay, conditions: first compound 0.005 µM

Cell Line	relative viability
NCI-H1975	0.956
NCI-H1993	0.541
NCI-H2009	0.73
NCI-H2023	0.44
NCI-H2085	0.902
NCI-H2087	0.695
NCI-H2126	0.703
NCI-H2170	0.759
NCI-H2228	0.749
NCI-H2342	0.587
NCI-H2347	0.388
NCI-H2405	0.647
NCI-H3122	0.891
PC-3 [JPC-3]	0.596
PC-14	1.06
SK-LU-1	0.273

Same assay, conditions: first compound 0.01581 µM

Cell Line	relative viability
NCI-H1975	0.829
NCI-H1993	0.547
NCI-H2009	0.448
NCI-H2023	0.374
NCI-H2085	0.578
NCI-H2087	0.514
NCI-H2126	0.522
NCI-H2170	0.683
NCI-H2228	0.62
NCI-H2342	0.509
NCI-H2347	0.364
NCI-H2405	0.485
NCI-H3122	1.02
PC-3 [JPC-3]	0.635
PC-14	0.703
RERF-LC-KJ	0.508
SK-LU-1	0.344

Same assay, conditions: first compound 0.05 µM

Cell Line	relative viability
NCI-H1975	0.9
NCI-H1993	0.541
NCI-H2009	0.48
NCI-H2023	0.368
NCI-H2085	0.367
NCI-H2087	0.568
NCI-H2126	0.607
NCI-H2170	0.866
NCI-H2228	0.237
NCI-H2342	0.659
NCI-H2347	0.456
NCI-H2405	0.565
NCI-H3122	0.147
PC-3 [JPC-3]	0.504
PC-14	0.74
RERF-LC-KJ	0.289
SK-LU-1	0.253

Compound: C[C@@H](C(=O)N[C@@H](C1CCCCC1)C(=O)N2CCC[C@H]2C(=O)N[C@@H]3[C@@H](CC4=CC=CC=C34)OCC#CC#CCO[C@@H]5CC6=CC=CC=C6[C@@H]5NC(=O)[C@@H]7CCCN7C(=O)[C@H](C8CCCCC8)NC(=O)[C@H](C)NC)NC [AZD5582] + N=C(N)NC(=N)NCCc1ccccc1 [Phenformin] (partner 250 µM)
Experiment: as above
Conditions: first compound 0.001581 µM
Method in brief: as §1

Cell Line	relative viability
NCI-H1975	0.416
NCI-H1993	0.535
NCI-H2009	0.445
NCI-H2023	0.387
NCI-H2085	0.562
NCI-H2087	0.423
NCI-H2126	0.489
NCI-H2170	0.38
NCI-H2228	0.335
NCI-H2342	0.551
NCI-H2347	0.356
NCI-H2405	0.375
NCI-H3122	0.362
PC-3 [JPC-3]	0.465
PC-14	0.556
SK-LU-1	0.362

Same assay, conditions: first compound 0.005 µM

Cell Line	relative viability
NCI-H1975	0.457
NCI-H1993	0.464
NCI-H2009	0.534
NCI-H2023	0.409
NCI-H2085	0.623
NCI-H2087	0.49
NCI-H2126	0.567
NCI-H2170	0.455
NCI-H2228	0.296
NCI-H2342	0.556
NCI-H2347	0.352
NCI-H2405	0.469
NCI-H3122	0.376
PC-3 [JPC-3]	0.441
PC-14	0.5
SK-LU-1	0.342

Same assay, conditions: first compound 0.01581 µM

Cell Line	relative viability
NCI-H1975	0.393
NCI-H1993	0.483
NCI-H2009	0.454
NCI-H2023	0.348
NCI-H2085	0.561
NCI-H2087	0.443
NCI-H2126	0.497
NCI-H2170	0.36
NCI-H2228	0.321
NCI-H2342	0.528
NCI-H2347	0.38
NCI-H2405	0.327
NCI-H3122	0.354
PC-3 [JPC-3]	0.47
PC-14	0.353
RERF-LC-KJ	0.35
SK-LU-1	0.508

Same assay, conditions: first compound 0.05 µM

Cell Line	relative viability
NCI-H1975	0.452
NCI-H1993	0.532
NCI-H2009	0.451
NCI-H2023	0.408
NCI-H2085	0.542
NCI-H2087	0.464
NCI-H2126	0.512
NCI-H2170	0.409
NCI-H2228	0.0886
NCI-H2342	0.634
NCI-H2347	0.239
NCI-H2405	0.473
NCI-H3122	0.19
PC-3 [JPC-3]	0.381
PC-14	0.511
RERF-LC-KJ	0.197
SK-LU-1	0.279

Compound: Cn1nnc2c(C(N)=O)ncn2c1=O [Temozolomide] + N=C(N)NC(=N)NCCc1ccccc1 [Phenformin] (partner 250 µM)
Experiment: as above
Conditions: first compound 0.2 µM
Method in brief: as §1

Cell Line	relative viability
NCI-H1975	0.444
NCI-H1993	0.563
NCI-H2009	0.521
NCI-H2023	0.431
NCI-H2085	0.594
NCI-H2087	0.49
NCI-H2126	0.503
NCI-H2228	0.411
NCI-H2342	0.57
NCI-H2347	0.34
NCI-H2405	0.492
NCI-H3122	0.394
PC-3 [JPC-3]	0.411
PC-14	0.498
RERF-LC-KJ	0.444
SK-LU-1	0.635

Same assay, conditions: first compound 0.6325 µM

Cell Line	relative viability
NCI-H1975	0.423
NCI-H1993	0.493
NCI-H2009	0.482
NCI-H2023	0.442
NCI-H2085	0.707
NCI-H2087	0.474
NCI-H2126	0.591
NCI-H2170	0.422
NCI-H2228	0.508
NCI-H2342	0.629
NCI-H2347	0.376
NCI-H2405	0.395
NCI-H3122	0.378
PC-3 [JPC-3]	0.475
PC-14	0.686
RERF-LC-KJ	0.466
SK-LU-1	0.57

Same assay, conditions: first compound 2 µM

Cell Line	relative viability
NCI-H1975	0.438
NCI-H1993	0.469
NCI-H2009	0.534
NCI-H2023	0.467
NCI-H2085	0.809
NCI-H2087	0.506
NCI-H2126	0.574
NCI-H2170	0.448
NCI-H2228	0.307
NCI-H2342	0.625
NCI-H2347	0.378
NCI-H2405	0.42
NCI-H3122	0.385
PC-3 [JPC-3]	0.5
PC-14	0.519
RERF-LC-KJ	0.442
SK-LU-1	0.461

Same assay, conditions: first compound 6.325 µM

Cell Line	relative viability
NCI-H1975	0.417
NCI-H1993	0.464
NCI-H2009	0.402
NCI-H2023	0.401
NCI-H2085	0.689
NCI-H2087	0.458
NCI-H2126	0.513
NCI-H2170	0.349
NCI-H2228	0.3
NCI-H2342	0.662
NCI-H2347	0.387
NCI-H2405	0.378
NCI-H3122	0.376
PC-3 [JPC-3]	0.469
PC-14	0.31
RERF-LC-KJ	0.41
SK-LU-1	0.296

Same assay, conditions: first compound 20 µM

Cell Line	relative viability
NCI-H1975	0.423
NCI-H1993	0.613
NCI-H2009	0.487
NCI-H2023	0.449
NCI-H2085	0.649
NCI-H2087	0.482
NCI-H2126	0.519
NCI-H2170	0.327
NCI-H2228	0.351
NCI-H2342	0.563
NCI-H2347	0.607
NCI-H2405	0.431
NCI-H3122	0.369
PC-3 [JPC-3]	0.347
PC-14	0.105
RERF-LC-KJ	0.427
SK-LU-1	0.258
